What was measured:
Format in all cases: in vivo
[1] = tested on: POAAN Poa annua (annual bluegrass); assay: Field trial, visual weed control in winter oilseed rape
Method: (§1) Multiple small plot research experiments were conducted to evaluate efficacy and tolerance of winter oilseed rape to compositions described herein. Typical small plots (2-4×4-10 meters (m)) were used in growers' fields under natural conditions with normal commercial cultural practices. Backpack sprayers were used to apply all treatments based on unit area. The methyl ester of formula (I) and propyzamide were tested alone and in combination at varying rates. […] Crop stage was at Growth Stage 39-50. Visual crop injury ratings were collected 32, 49, and 74 days after treatment. […] The reported values are means. […] The following abbreviations are used in Tables 2-4: • GERSS Geranium sp. (cranesbill) • POAAN Poa annua (annual bluegrass) • VERSS Veronica sp.

[2] = tested on: GERSS Geranium sp. (cranesbill); assay: as above
Method: as §1

[3] = tested on: VERSS Veronica sp. (speedwell); assay: as above
Method: as §1

[4] = tested on: POLCO Polygonum convolvulus L. (wild buckwheat); assay: Postemergent herbicidal activity, greenhouse; settings: foliar, 14 d
Method: (§2) Evaluation of Postemergent Herbicidal Activity. Seeds or nutlets of the desired test plant species were planted in Sun Gro Metro-Mix® 360 planting mixture, which typically has a pH of 6.0 to 6.8 and an organic matter content of about 30 percent, in plastic pots with a surface area of 64 square centimeters (cm^2). […] The plants were grown for 7-21 days (d) in a greenhouse with an approximate 15 hour (h) photoperiod which was maintained at about 23-29° C. during the day and 22-28° C. during the night. Nutrients and water were added on a regular basis and supplemental lighting was provided with overhead metal halide 1000-Watt lamps as necessary. The plants were employed for testing when they reached the first or second true leaf stage.
(§3) A weighed amount, determined by the highest rate to be tested, of each test compound was placed in a 25 milliliter (mL) glass vial and was dissolved in 4 mL of a 97:3 volume per volume (v/v) mixture of acetone and dimethyl sulfoxide (DMSO) to obtain concentrated stock solutions. […] The concentrated stock solutions obtained were diluted with 20 mL of an aqueous mixture containing acetone, water, isopropyl alcohol, DMSO, Atplus 411F crop oil concentrate, and Triton® X-155 surfactant in a 48.5:39:10:1.5:1.0:0.02 v/v ratio to obtain spray solutions containing the highest application rates. Additional application rates were obtained by serial dilution of 12 mL of the high rate solution into a solution containing 2 mL of a 97:3 v/v mixture of acetone and DMSO and 10 mL of an aqueous mixture containing acetone, water, isopropyl alcohol, DMSO, Atplus 411F crop oil concentrate, and Triton X-155 surfactant in a 48.5:39:10:1.5:1.0:0.02 v/v ratio to obtain 1/2×, 1/4×, 1/8× and 1/16× rates of the high rate. Compound requirements are based upon a 12 mL application volume at a rate of 187 liters per hectare (L/ha). Formulated compounds were applied to the plant material with an overhead Mandel track sprayer equipped with 8002E nozzles calibrated to deliver 187 L/ha over an application area of 0.503 square meters (m^2) at a spray height of 18 inches (43 cm) above the average plant canopy height. Control plants were sprayed in the same manner with the solvent blank.
(§4) Treatments consisted of the methyl ester of 4-amino-3-chloro-6-(4-chloro-2-fluoro-3-methoxyphenyl)pyridine-2-carboxylic acid (Cmpd 1) as technical grade material and propyzamide (Kerb 50 W) alone and in combination.
(§5) The treated plants and control plants were placed in a greenhouse as described above and watered by subirrigation to prevent wash-off of the test compounds. After 14 d, the condition of the test plants as compared with that of the untreated plants was determined visually and scored on a scale of 0 to 100 percent where 0 corresponds to no injury and 100 corresponds to complete kill.
(§6) Colby's equation was used to determine the herbicidal effects expected from the mixtures (Colby, S. R. Calculation of the synergistic and antagonistic response of herbicide combinations. Weeds 1967, 15, 20-22). More specifically, the following equation was used to calculate the expected activity of mixtures containing two active ingredients, A and B: Expected=A+B−(A×B/100) A=observed efficacy of active ingredient A at the same concentration as used in the mixture; B=observed efficacy of active ingredient B at the same concentration as used in the mixture.

[5] = tested on: EPHHL Euphorbia heterophylla L. (wild poinsettia); assay: Postemergent herbicidal activity, greenhouse; settings: foliar, 14 d
Method: as §2, §3, §4, §5, §6

[6] = tested on: CIRAR Cirsium arvense (L.) Scop. (Canada thistle); assay: Postemergent herbicidal activity, greenhouse; settings: foliar, 14 d
Method: as §2, §3, §4, §5, §6

[7] = tested on: SETFA Setaria faberi Herrm. (giant foxtail); assay: Postemergent herbicidal activity, greenhouse; settings: foliar, 14 d
Method: as §2, §3, §4, §5, §6

[8] = tested on: IPOHE Ipomoea hederacea (L.) Jacq. (ivyleaf morningglory); assay: Postemergent herbicidal activity, greenhouse; settings: foliar, 14 d
Method: as §2, §3, §4, §5, §6

[9] = tested on: VIOTR Viola tricolor L. (wild violet); assay: Postemergent herbicidal activity, greenhouse; settings: foliar, 14 d
Method: as §2, §3, §4, §5, §6

[10] = tested on: CHEAL Chenopodium album L. (common lambsquarters); assay: Postemergent herbicidal activity, greenhouse; settings: foliar, 14 d
Method: as §2, §3, §4, §5, §6

[11] = tested on: ABUTH Abutilon theophrasti Medik. (velvetleaf); assay: Postemergent herbicidal activity, greenhouse; settings: foliar, 14 d
Method: as §2, §3, §4, §5, §6

[12] = tested on: GLXMA Glycine max (volunteer soybean); assay: Postemergent herbicidal activity, greenhouse; settings: foliar, 14 d
Method: as §2, §3, §4, §5, §6

[13] = tested on: AMARE Amaranthus retroflexus L. (redroot pigweed); assay: Postemergent herbicidal activity, greenhouse; settings: foliar, 14 d
Method: as §2, §3, §4, §5, §6

[14] = tested on: STEME Stellaria media (L.) Vill. (common chickweed); assay: Postemergent herbicidal activity, greenhouse; settings: foliar, 14 d
Method: as §2, §3, §4, §5, §6

[15] = tested on: BRSNW Brassica napus (winter oilseed rape); assay: Postemergent herbicidal activity, greenhouse; settings: foliar, 14 d
Method: as §2, §3, §4, §5, §6

winter oilseed rape = assay: Field trial, visual crop injury ratings; settings: varying rates, crop Growth Stage 39-50, 32, 49, and 74 days after treatment, in each case
Method: Multiple small plot research experiments were conducted to evaluate efficacy and tolerance of winter oilseed rape to compositions described herein. Typical small plots (2-4×4-10 meters (m)) were used in growers' fields under natural conditions with normal commercial cultural practices. Backpack sprayers were used to apply all treatments based on unit area. The methyl ester of formula (I) and propyzamide were tested alone and in combination at varying rates. Application water volume was 150 L/ha. Crop stage was at Growth Stage 39-50. Visual crop injury ratings were collected 32, 49, and 74 days after treatment. […] The reported values are means.

[16] = Propyzamide 250 g ai/ha, 32 DAAA
[17] = Propyzamide 250 g ai/ha, 58 DAAA
[18] = Propyzamide 250 g ai/ha, 80 DAAA
[19] = Propyzamide 500 g ai/ha, 32 DAAA
[20] = Propyzamide 500 g ai/ha, 58 DAAA
[21] = Propyzamide 500 g ai/ha, 80 DAAA
[22] = Propyzamide 750 g ai/ha, 32 DAAA
[23] = Propyzamide 750 g ai/ha, 58 DAAA
[24] = Propyzamide 750 g ai/ha, 80 DAAA

In the case of `C#CC(C)(C)NC(=O)c1cc(Cl)cc(Cl)c1` [Propyzamide, 3,5-dichloro-N-(1,1-dimethylpropynyl)benzamide], the “% control rated visually, ob (observed)” value [1, 16] is reported as 12.5%, the “% control rated visually, ob (observed)” value [1, 17] is reported as 12.5% and the “% control rated visually, ob (observed)” value [1, 18] is reported as 45.0%. The “% control rated visually, ob (observed)” value [1, 19] was 15.0%, the “% control rated visually, ob (observed)” value [1, 20] was 67.5% and the “% control rated visually, ob (observed)” value [1, 21] was 95.0%. For the same compound, the “% control rated visually, ob (observed)” value [1, 22] was 37.5%, the “% control rated visually, ob (observed)” value [1, 23] was 92.5% and the “% control rated visually, ob (observed)” value [1, 24] was 98.3%. The “% control rated visually, ob (observed)” value [2, 16] was 5.0%, the “% control rated visually, ob (observed)” value [2, 17] was 17.5% and the “% control rated visually, ob (observed)” value [2, 18] was 22.5%. The “% control rated visually, ob (observed)” value [2, 19] was 20.0%, the “% control rated visually, ob (observed)” value [2, 20] was 35.0% and the “% control rated visually, ob (observed)” value [2, 21] was 28.8%. The “% control rated visually, ob (observed)” value [2, 22] was 18.8%, the “% control rated visually, ob (observed)” value [2, 23] was 25.0% and the “% control rated visually, ob (observed)” value [2, 24] was 33.8%. For the same compound, the “% control rated visually, ob (observed)” value [3, 16] was 43.8%, the “% control rated visually, ob (observed)” value [3, 18] was 100.0% and the “% control rated visually, ob (observed)” value [3, 19] was 60.0%. The “% control rated visually, ob (observed)” value [3, 21] was 100.0%, the “% control rated visually, ob (observed)” value [3, 22] was 54.3% and the “% control rated visually, ob (observed)” value [3, 24] was 100.0%. The “% control rated visually, ob (observed)” value ([4]; Propyzamide 285 g ai/ha) was 5%, the “% control rated visually, ob (observed)” value ([4]; Propyzamide 570 g ai/ha) was 15% and the “% control rated visually, ob (observed)” value ([5]; Propyzamide 285 g ai/ha) was 0%. The “% control rated visually, ob (observed)” value ([5]; Propyzamide 570 g ai/ha) was 0%, the “% control rated visually, ob (observed)” value ([6]; Propyzamide 285 g ai/ha) was 0% and the “% control rated visually, ob (observed)” value ([6]; Propyzamide 570 g ai/ha) was 0%. For the same compound, the “% control rated visually, ob (observed)” value ([7]; Propyzamide 285 g ai/ha) was 0%, the “% control rated visually, ob (observed)” value ([7]; Propyzamide 570 g ai/ha) was 0% and the “% control rated visually, ob (observed)” value ([8]; Propyzamide 285 g ai/ha) was 10%. The “% control rated visually, ob (observed)” value ([8]; Propyzamide 570 g ai/ha) was 17%, the “% control rated visually, ob (observed)” value ([9]; Propyzamide 285 g ai/ha) was 0% and the “% control rated visually, ob (observed)” value ([9]; Propyzamide 570 g ai/ha) was 0%. The “% control rated visually, ob (observed)” value ([10]; Propyzamide 285 g ai/ha) was 0%, the “% control rated visually, ob (observed)” value ([10]; Propyzamide 570 g ai/ha) was 0% and the “% control rated visually, ob (observed)” value ([11]; Propyzamide 285 g ai/ha) was 5%. For the same compound, the “% control rated visually, ob (observed)” value ([11]; Propyzamide 570 g ai/ha) was 0%, the “% control rated visually, ob (observed)” value ([12]; Propyzamide 285 g ai/ha) was 10% and the “% control rated visually, ob (observed)” value ([12]; Propyzamide 570 g ai/ha) was 15%. For the same compound, the “% control rated visually, ob (observed)” value ([13]; Propyzamide 285 g ai/ha) was 0%, the “% control rated visually, ob (observed)” value ([13]; Propyzamide 570 g ai/ha) was 10% and the “% control rated visually, ob (observed)” value ([14]; Propyzamide 285 g ai/ha) was 7%. For the same compound, the “% control rated visually, ob (observed)” value ([14]; Propyzamide 570 g ai/ha) was 75%, the “% control rated visually, ob (observed)” value ([15]; Propyzamide 285 g ai/ha) was 5% and the “% control rated visually, ob (observed)” value ([15]; Propyzamide 570 g ai/ha) was 20%. For the same compound, the “Visual crop injury rating” value (winter oilseed rape) was 0 % injury.
